# Data taken from paper PMC12396409, “Screening and hit evaluation of a microbial metabolite library against the pathogenic Plasmodium falciparum and Toxoplasma gondii parasites” (International Journal for Parasitology: Drugs and Drug …, 2025).
# Where two headings read alike, the source gives them in different places.
# Legend:
# [1] = test system: P. falciparum 3D7 parasites; assay: P. falciparum growth inhibition assay, 1-cycle (72 h treatment), SYBR DNA staining (library screen at 2 μg/mL and dose-response); type: cell-based, Plasmodium falciparum; details: for activity at 2 µg/mL: Plasmodium falciparum, 3D7, 72 h
# [2] = test system: P. falciparum 3D7 parasites; assay: P. falciparum growth inhibition assay, 2-cycle (120 h treatment), delayed-death screen and dose-response; type: cell-based, Plasmodium falciparum; details: for activity at 2 µg/mL: Plasmodium falciparum, 3D7, 120 h
# [3] = test system: T. gondii RH strain (RH-Tub-eYFP) tachyzoites; assay: microbe, parasite or virus in culture; type: cell-based, Toxoplasma gondii; details: T. gondii, 72 h; for percent parasite growth at 2 µg/mL: Toxoplasma gondii
# [4] = P. falciparum 3D7, 72 h, parasite screen at 2 μg/mL, % growth, replicate 1
# [5] = P. falciparum 3D7, 72 h, parasite screen at 2 μg/mL, % growth, replicate 2
# [6] = P. falciparum 3D7, 120 h, parasite screen at 2 μg/mL, % growth, replicate 1
# [7] = P. falciparum 3D7, 120 h, parasite screen at 2 μg/mL, % growth, replicate 2
# [8] = parasite screen at 2 μg/mL, % growth, replicate 1
# [9] = parasite screen at 2 μg/mL, % growth, replicate 2
# [10] = P. falciparum, 72 h, screen at 2 μg/mL, replicate 1, read-out: Pf_72h_%Growth_Rep1
# [11] = P. falciparum, 72 h, screen at 2 μg/mL, replicate 2, read-out: Pf_72h_%Growth_Rep2
# [12] = P. falciparum, 120 h, screen at 2 μg/mL, replicate 1, read-out: Pf_120h_%Growth_Rep1
# [13] = P. falciparum, 120 h, screen at 2 μg/mL, replicate 2, read-out: Pf_120h_%Growth_Rep2
# [14] = screen at 2 μg/mL, replicate 1, read-out: Tg_72h_%Growth_Rep1
# [15] = screen at 2 μg/mL, replicate 2, read-out: Tg_72h_%Growth_Rep2
# [16] = P. falciparum, 72 h, screen at 2 μg/mL, replicate 1
# [17] = P. falciparum, 72 h, screen at 2 μg/mL, replicate 2
# [18] = P. falciparum, 120 h, screen at 2 μg/mL, replicate 1
# [19] = P. falciparum, 120 h, screen at 2 μg/mL, replicate 2
smiles,measurement,setting,value
COc1cc2nccc3c4ccccc4n(c1=O)c23 [BIA-M1940],Pf_72h_%Growth_Rep1,[1]; [4],95.54%
same,Pf_72h_%Growth_Rep2,[1]; [5],122.74%
same,Pf_120h_%Growth_Rep1,[2]; [6],112.19%
same,Pf_120h_%Growth_Rep2,[2]; [7],105.38%
same,Tg_72h_%Growth_Rep1,[3]; [8],156.47%
same,Tg_72h_%Growth_Rep2,[3]; [9],73.09%
CC1=C(O)C(=O)[C@@H]2O[C@@H]2C1=O [Terreic acid],activity at 2 µg/mL,[1]; [10],89.2%
same,activity at 2 µg/mL,[1]; [11],121%
same,activity at 2 µg/mL,[2]; [12],100%
same,activity at 2 µg/mL,[2]; [13],98%
same,percent parasite growth at 2 µg/mL,[3]; [14],132%
same,percent parasite growth at 2 µg/mL,[3]; [15],83%
"C[C@@H]1CCC[C@@H](O)CCC/C=C/c2cc(O)cc(O)c2C(=O)O1 [Zearalenol, alpha-]",Pf_72h_%Growth_Rep1,[1]; [16],64.20%
same,Pf_72h_%Growth_Rep2,[1]; [17],80.17%
same,Pf_120h_%Growth_Rep1,[2]; [18],153.36%
same,Pf_120h_%Growth_Rep2,[2]; [19],83.41%
same,Tg_72h_%Growth_Rep1,"[3]; screen at 2 μg/mL, replicate 1",85.29%
same,Tg_72h_%Growth_Rep2,"[3]; screen at 2 μg/mL, replicate 2",104.82%
CCC1OC2(CCC1C)CC1CC(CC=C(C)CC(C)C=CC=C3COC4C(=NO)C(C)=CC(C(=O)O1)C34O)O2 (stereo not shown) [BIA-M1532],Pf_72h_%Growth_Rep1,[1]; [4],26.87%
same,Pf_72h_%Growth_Rep2,[1]; [5],18.08%
same,Pf_120h_%Growth_Rep1,[2]; [6],8.04%
same,Pf_120h_%Growth_Rep2,[2]; [7],16.57%
same,Tg_72h_%Growth_Rep1,[3]; [8],83.72%
same,Tg_72h_%Growth_Rep2,[3]; [9],81.98%
O=C1N[C@@H](Cc2ccc(O)cc2)C(=O)N2CCC[C@@H]12 [Cyclo(L-Pro-L-Tyr)],Pf_72h_%Growth_Rep1,[1]; [16],91.38%
same,Pf_72h_%Growth_Rep2,[1]; [17],88.30%
same,Pf_120h_%Growth_Rep1,[2]; [18],89.64%
same,Pf_120h_%Growth_Rep2,[2]; [19],119.86%
same,Tg_72h_%Growth_Rep1,"[3]; screen at 2 μg/mL, replicate 1",132.28%
same,Tg_72h_%Growth_Rep2,"[3]; screen at 2 μg/mL, replicate 2",86.77%
Nc1cc2nc3ccccc3oc-2cc1=O [Questiomycin A],Pf_72h_%Growth_Rep1,"[1]; P. falciparum, 72 h, parasite screen 2 μg/mL, % growth, replicate 1",72.04%
same,Pf_72h_%Growth_Rep2,"[1]; P. falciparum, 72 h, parasite screen 2 μg/mL, % growth, replicate 2",68.55%
same,Pf_120h_%Growth_Rep1,"[2]; P. falciparum, 120 h, parasite screen 2 μg/mL, % growth, replicate 1",44.88%
same,Pf_120h_%Growth_Rep2,"[2]; P. falciparum, 120 h, parasite screen 2 μg/mL, % growth, replicate 2",66.03%
same,Tg_72h_%Growth_Rep1,"[3]; parasite screen 2 μg/mL, % growth, replicate 1",83.12%
same,Tg_72h_%Growth_Rep2,"[3]; parasite screen 2 μg/mL, % growth, replicate 2",77.23%
C=C1[C@@H](C)[C@H]2[C@H](Cc3ccccc3)NC(=O)[C@]23OC(=O)/C=C/C(=O)CCC[C@@H](C)C/C=C/[C@H]3[C@@H]1O [Cytochalasin A],Pf_72h_%Growth_Rep1,[1]; [16],14.20%
same,Pf_72h_%Growth_Rep2,[1]; [17],12.98%
same,Pf_120h_%Growth_Rep1,[2]; [18],0.48%
same,Pf_120h_%Growth_Rep2,[2]; [19],6.78%
same,Tg_72h_%Growth_Rep1,"[3]; screen at 2 μg/mL, replicate 1",2.84%
same,Tg_72h_%Growth_Rep2,"[3]; screen at 2 μg/mL, replicate 2",2.30%
COc1cc(-c2cc3c(c(=O)o2)C[C@]2(O)[C@@]4(C)C(=O)C=CC(C)(C)[C@]4(O)CC[C@@]2(C)O3)cc2c1OCO2 [Territrem A],Mean,"[1]; P. falciparum, 72 h, 2 μg/mL, mean of both replicates, growth (% of control)",49.47
same,activity at 2 µg/mL,[1]; [10],14.3%
same,activity at 2 µg/mL,[1]; [11],84.6%
same,activity at 2 µg/mL,[2]; [12],6.66%
same,activity at 2 µg/mL,[2]; [13],112%
same,percent parasite growth at 2 µg/mL,[3]; [14],104%
same,percent parasite growth at 2 µg/mL,[3]; [15],88.7%
